{"source": "patent US20250319096A1", "about": "“METHODS AND COMPOUNDS FOR TREATING INFLAMMATION” ([…] INCORPERATED, priority 2021, published 2025)", "key": {"GABAA receptors [1]": {"target": "GABAA receptors", "details": "literature value, ref [37]; read-out: reported IC50 (GABAAR binding); cited from earlier work"}, "[2]": {"tested_on": "colon MPO activity (Myeloperoxidase)", "assay": "MPO assay on whole colon homogenates of DSS mice", "format": "in vivo", "details": "100 mg/kg daily in peanut butter, 3% DSS water", "protocol": "(§1) Ten (10) week old female Swiss Webster mice were offered 3% Dextran sodium sulfate (DSS) water to induce ulcerative colitis. Group 1 (n=8) received daily peanut butter (200 mg) and group 2 (n=8) received 100 mg/kg PI320 in peanut butter. The animals were weighted daily. See, FIGS. 1A and 1B.\nMPO assay: Whole colons were homogenized in phosphate buffer and centrifuge at 10,000 rpm at 4° C. from 10 min. The protein concentration supernatant was determined with a BCA assay and adjusted to 200 μg/ml with the addition of phosphate buffer. A daily standard solution for the hydrogen peroxide solution was prepared to a concentration of 0.0024% from a 35% v/v stock. The phosphate buffer that was prepared for the BCA assay was utilized for the dilution step of this assay. O-dianisidine dihydrogen chloride was prepared at a concentration of 167 μg/mL in phosphate buffer and sonicated for 30 min to dissolve in the buffer. 8 µL of protein solution was transferred to a 384 well plate containing 62 μL of the o-dianisidine solution. The reaction is initiated with the addition of 10 μL of the hydrogen peroxide solution prepared above. […] The product of this reaction shifts the absorbance to the λmax to 460 nm. The plate is then measured over a 15 min period in the plate reader in 30 sec intervals. […]"}, "[3]": {"tested_on": "C57BL/6 mouse bladder strips with intact mucosa", "assay": "Functional analysis in overactive bladder model, carbachol-contracted bladder strips", "parameters": "species or system mice", "details": "10 uM carbachol, cumulatively increasing concentrations 1-100 uM", "protocol": "C57BL/6 female mice (12 weeks, Harlan UK, Ltd) are euthanized by cervical dislocation. The bladder is removed after a midline laparotomy, the neck and trigone region cut away and the dome laid out as a sheet after an anterior wall incision. Strips with intact mucosa (5-7 mm length, 1-2 mm diameter) are dissected and tied in a horizontal trough between a fixed hook and an isometric force transducer. Preparations are superfused (3 ml·min−1) at 36° C. with Tyrode's solution. PI320 or DMSO vehicle are added to the superfusate and their effects on tension measured.\nUnstimulated preparations are allowed to equilibrate under tension (20 mN) until a stable base-line is recorded. The preparation is exposed to 10 µM carbachol and peak and steady-state tension recorded. In the continued presence of carbachol the preparation is also exposed to P1320 in cumulatively increasing concentrations (1, 3, 10, […], 100 uM) until a new steady-state is achieved at each concentration. For vehicle controls DMSO is added in rising concentrations (0.01, 0.03, 0.1, 0.3, 1.0% (v/v)) after a steady-state contraction is achieved with carbachol.\nData are mean±SD; differences between multiple data sets were tested with repeated measures two-way ANOVA and Tukey post hoc tests."}, "GABAA receptors [4]": {"target": "GABAA receptors", "assay": "GABAA receptor binding, [3H]-flunitrazepam displacement on rat brain membranes", "details": "n=6, read-out: GABAAR binding (IC50)", "protocol": "Rat brain membranes are prepared from frozen tissue that was thawed on ice, homogenized on ice in 10 volumes of cold lysis buffer (50 mM Tris HCl, pH 7.4, containing protease inhibitor cocktail from Roche) using a Polytron homogenizer (6 pulses and 10 seconds per pulse). The homogenate is centrifuged at 1,000×g for 10 min at 4° C. to obtain supernatant. The supernatant is then centrifuged at 40,000×g for 20 min, and then the resulting supernatant is decanted and replaced with the same ice-cold lysis buffer. Two or three additional rounds of homogenization-centrifugation are performed to ensure thorough homogenization and also to wash out endogenous ligands. The final pellet is resuspended in the same buffer and homogenized one last time. The rat brain suspension is diluted in buffer (50 mM Tris HCl, 2.5 mM CaCl2), pH 7.4), followed by the addition of [3H]-flunitrazepam (0.6-4.0 nM in DMSO) and PI320 or PI310 in DMSO at different concentrations to reach a final of volume of 125 ul per well. GABAAR subtypes that bind flunitrazepam consist of α1-3,5,6β1-3γ1-3/δ GABAARs. Relative expression of GABAARs in the brain consist of 43% α1β2γ2, 15% α2β3γ2+8% α2βγ1, 10% α3β3γ2, 6% α4βγ/δ, 4% α5β3γ2, and 4% α6β2γ2/δ. […]\nTotal binding and nonspecific binding are determined with reference compound clonazepam. […] Scintillation cocktail is then melted onto the microwave-dried filters on a hot plate and radioactivity counted in a Microbeta counter. The data (n=6) are analyzed by nonlinear regression.\nGABAA receptor binding: Rat brain membranes were prepared from frozen tissue that was thawed on ice and homogenized on ice in 10 volumes of cold lysis buffer (50 mM Tris HCl, pH 7.4, containing protease inhibitor cocktail; Roche) using a Polytron homogenizer (6 pulses and 10 seconds per pulse). […] Total binding and nonspecific binding were determined with reference compound clonazepam. […] Scintillation cocktail was then melted onto the microwave-dried filters on a hot plate and radioactivity counted in a Microbeta counter. The data (n=6) were analyzed by nonlinear regression."}, "[5]": {"tested_on": "mice with INFγ/LPS induced lung inflammation", "assay": "Steroid resistant mouse asthma model (INFγ/LPS), airway hyperresponsiveness sRaw after methacholine", "format": "in vivo", "details": "for reduction of AHR (sRAW) versus vehicle control: nebulized 7.2 mg/kg, prior to second and third methacholine application, p≤0.005", "protocol": "Female A/J mice are purchased from Jackson Laboratory (Bar Harbor, ME) and female Swiss Webster mice are purchased from Charles River Laboratory (Wilmington, MA). Animals are given ad libitum access to food and water. Test drugs are prepared for nebulization as follows: a 3.0 mg/ml solution of albuterol (Millipore Sigma) is prepared in phosphate buffered saline (137 mM NaCl, 2.7 mM KCl, 10 mM Na2HPO4, and 1.8 mM KH2PO4) and PI320 is prepared as 3.2 mg/ml solution in water with 0.17% Tween-20. Airway hyperresponsiveness measurements, sRaw, are obtained using a Buxco FinePointe Non-Invasive Airway Mechanics instrument (DSI, St. Paul, MN) as described previously (ACS Pharmacol Transl Sci 3, 1381-1390).\nEfficacy of control drug (albuterol) and PI320 are determined by reduction of sRAW in mice compared to vehicle treated control mice. Here, mouse lung inflammation is induced with INFγ and bacterial lipopolysaccharide (LPS) via intratracheal installation. Elevated levels of IFNγ in the lung are observed for neutrophilic asthma patients, which respond poorly to steroid treatment (Eur Respir J 11, 312-316). One contributing factor is the impaired nuclear translocation of the liganded glucocorticoid receptor in pulmonary macrophages (Am J Respir Crit Care Med 191, 54-62). LPS simulates a microbial infection leading to macrophage-mediated inflammatory response (J Immunol 185, 4401-4409).\nThe tracheal installation of INFγ/LPS increases airway hyper-responsiveness to an inhaled challenge agent as measured by sRAW, which is based on the breathing volume and frequency. The challenge agent, methacholine, is administered three times over 24 minutes resulting in sRAW of approximately 8.0 cmH2O*sec."}, "[6]": {"tested_on": "Swiss Webster mice with 3% Dextran sodium sulfate (DSS) induced ulcerative colitis", "assay": "Inflammatory bowel disease model, 3% DSS induced ulcerative colitis, bodyweight", "format": "in vivo", "details": "100 mg/kg daily in peanut butter, 3% DSS water", "protocol": "as §1"}, "[7]": {"tested_on": "Swiss Webster mice, MC903 challenge", "assay": "MC903 mouse AD model, ear thickness", "format": "in vivo", "details": "2 nmol topically on both ears, third week after MC903, p≤0.05 / p≤0.01", "source_text": "An established mouse model of AD is used to evaluate the efficacy of PI320 in reducing ear thickness following MC903 challenge (for background on the model see: J Invest Dermatol 138, 2606-2616 [28]; Proc Natl Acad Sci USA, 103, 11736-11741 [29]; Sci Transl Med, 5, 170ra116 [30]; J Invest Dermatol, 138, 1555-1563 [31]). Ear thickness is used as a measure of inflammation caused by the chemical irritant.\nBriefly, commercially sourced female Swiss Webster mice (Charles River Laboratory, Wilmington, MA) at approximately seven weeks of age are used. Sixteen mice are housed under 7:00 AM-7:00 PM 12 h light cycle and administered 2 nmol MC903 on each ear on Monday, Wednesday and Friday for two weeks. The ear thickness increased from 0.3 mm to 0.7 mm during that time. During the third week, a group of eight mice were administered 2 nmol of PI320 topically on both ears (10 ul of a 100 uM solution in ethanol on each side of both ears). The control group received vehicle ethanol. Ear thickness is measured using calipers. […] See, FIG. 4."}}, "note": "Where two headings read alike, the source gives them in different places."}
{"smiles": "C[C@H]1N=C(c2ccccc2F)c2cc(Br)ccc2-n2cnc(C(=O)O)c21", "note": "[MIDD0301, (R)-8-bromo-6-(2-fluorophenyl)-4-methyl-4H-benzo[f]imidazo[1,5-a][1,4]diazepine-3-carboxylic acid]", "values": [{"measurement": "IC50", "setting": "GABAA receptors [1]", "value": 72, "unit": "nM"}]}
{"smiles": "COCCOCCOCCOCCOCCNC(=O)c1ncn2c1[C@@H](C)N=C(c1ccccc1F)c1cc(Br)ccc1-2", "note": "[PI320, (R)-8-bromo-6-(2-fluorophenyl)-N-(2,5,8,11,14-pentaoxahexadecan-16-yl)-4-methyl-4H-benzo[f]imidazo[1,5-a][1,4]diazepine-3-carboxamide]", "values": [{"measurement": "colon Myeloperoxidase (MPO) level versus vehicle group", "setting": "[2]", "value": "greatly reduced"}, {"measurement": "contraction force of bladder strips versus DMSO controls", "setting": "[3]", "value": "concentration-dependent reduction of force"}, {"measurement": "IC50", "setting": "GABAA receptors [4]", "value": 242, "unit": "nM"}, {"measurement": "reduction of methacholine induced airway hyper-responsiveness compared with albuterol", "setting": "[5]; administered via inhalation", "value": "at least as effective as albuterol"}, {"measurement": "reduction of AHR (sRAW) versus vehicle control", "setting": "[5]", "value": "statistically significant reductions"}, {"measurement": "change of bodyweight in comparison to the initial weight", "setting": "[6]; days 6 and 7", "value": "small drop in weight"}, {"measurement": "change of bodyweight", "setting": "[6]; from day 2", "value": "regained weight on day 2"}, {"measurement": "ear thickness versus vehicle control", "setting": "[7]", "value": "significantly reduces ear thickness"}]}
{"smiles": "COCCOCCNC(=O)C1N=CN2C3=C(CC(Br)C=C3)C(c3ccccc3F)=N[C@H](C)C12", "note": "(stereo partly drawn) [PI350]", "values": [{"measurement": "IC50", "setting": "GABAA receptors [4]", "value": 58, "unit": "nM"}]}
{"smiles": "COCCOCCOCCOCCNC(=O)C1N=CN2C3=C(CC(Br)C=C3)C(c3ccccc3F)=N[C@H](C)C12", "note": "(stereo partly drawn) [PI352]", "values": [{"measurement": "IC50", "setting": "GABAA receptors [4]", "value": 38, "unit": "nM"}]}
{"smiles": "CC(C)(C)NCC(O)c1ccc(O)c(CO)c1", "note": "(stereo not drawn) [albuterol, reference compound]", "values": [{"measurement": "reduction of AHR (sRAW) versus vehicle control", "setting": "[5]", "value": "statistically significant reductions"}]}
